Key:
[1] = system: EGFR Del19/T790M/C797S (BaF3-DTC cells); test: EGFR degradation HTRF assay, BaF3-DTC cells; format: cell-based; conditions: 16h treatment; for DTC Dmax (%): maximum percentage of degradation; for DC50: read-out: DTC DC50
In short: (§1)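 EGFR remaining after a 16 h, 37 °C exposure (8 doses, 5-fold steps from 10 uM final, 0.2% DMSO) was quantified by HTRF antibodies in cell lysate. Percent inhibition relative to DMSO control was fitted by four-parameter logistic to give DC50; Dmax denotes maximal degradation.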

[2] = molecular target: T1, EGFR L858R/T790M/C797S (BaF3-LTC cells) (Homo sapiens, UniProt P00533, C797S/L858R/T790M); test: EGFR degradation HTRF assay, BaF3-LTC cells; format: cell-based; conditions: BaF3-LTC, 16h treatment; for Dmax: maximum percentage of degradation, read-out: LTC Dmax (%); for DC50: read-out: LTC DC50
T1 construct: expressed in transfected cells; host or cells: BaF3
T1 sequence (P00533 25-1210 T790M/C797S/L858R): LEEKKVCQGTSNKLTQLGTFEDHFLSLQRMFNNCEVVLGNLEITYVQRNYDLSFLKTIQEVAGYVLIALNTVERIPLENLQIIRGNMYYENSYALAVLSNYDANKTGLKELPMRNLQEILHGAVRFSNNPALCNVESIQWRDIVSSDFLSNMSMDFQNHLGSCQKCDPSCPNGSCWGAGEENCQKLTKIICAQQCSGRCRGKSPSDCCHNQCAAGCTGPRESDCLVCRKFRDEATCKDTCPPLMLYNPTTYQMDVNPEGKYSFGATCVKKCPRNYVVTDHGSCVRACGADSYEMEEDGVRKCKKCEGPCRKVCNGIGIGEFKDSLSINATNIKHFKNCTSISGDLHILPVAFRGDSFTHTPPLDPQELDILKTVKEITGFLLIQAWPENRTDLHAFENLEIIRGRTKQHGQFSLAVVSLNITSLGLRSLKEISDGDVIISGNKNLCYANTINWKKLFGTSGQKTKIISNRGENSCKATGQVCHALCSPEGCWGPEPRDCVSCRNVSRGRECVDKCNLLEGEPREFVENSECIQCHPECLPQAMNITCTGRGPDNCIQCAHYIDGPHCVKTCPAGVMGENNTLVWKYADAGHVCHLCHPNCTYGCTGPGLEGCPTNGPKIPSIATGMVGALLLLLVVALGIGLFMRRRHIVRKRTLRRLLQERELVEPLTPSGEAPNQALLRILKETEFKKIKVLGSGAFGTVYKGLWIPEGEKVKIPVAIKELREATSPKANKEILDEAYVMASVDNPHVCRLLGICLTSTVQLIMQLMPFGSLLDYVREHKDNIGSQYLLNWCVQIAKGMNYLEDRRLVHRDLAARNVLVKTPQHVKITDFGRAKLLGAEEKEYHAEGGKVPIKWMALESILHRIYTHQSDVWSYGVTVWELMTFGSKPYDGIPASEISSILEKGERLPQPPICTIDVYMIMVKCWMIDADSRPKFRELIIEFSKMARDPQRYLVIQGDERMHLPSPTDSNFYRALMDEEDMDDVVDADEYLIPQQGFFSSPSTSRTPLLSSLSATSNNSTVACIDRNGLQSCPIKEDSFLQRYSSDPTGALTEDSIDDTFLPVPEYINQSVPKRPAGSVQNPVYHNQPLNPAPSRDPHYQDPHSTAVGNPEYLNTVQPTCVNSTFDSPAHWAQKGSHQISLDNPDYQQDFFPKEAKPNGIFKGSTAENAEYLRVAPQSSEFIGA
In short: as §1

Row | SMILES | DC50 [1] [nM] | Dmax [2] [%] | DC50 [2] [nM] | DTC Dmax (%) [1] [%]
1 | CCc1cc(Nc2ncc(Br)c(Nc3ccc4ncn(C)c(=O)c4c3P(C)(C)=O)n2)c(OC)cc1N1CCC(N2CCN(C(=O)C3CCN(c4cc(F)c(C5CCC(=O)NC5=O)c(F)c4)C3)CC2)CC1 (stereo not drawn) [Example 701, 3-(4-(3-(4-(1-(4-((5-bromo-4-((5-(dimethylphosphoryl)-3-methyl-4-oxo-3,4-dihydroquinazolin-6-yl)amino)pyrimidin-2-yl)amino)-2-ethyl-5-methoxyphenyl)piperidin-4-yl)piperazine-1-carbonyl)pyrrolidin-1-yl)-2,6-difluorophenyl)piperidine-2,6-dione] | 2.23 | 92.7 | 9.87 | 90.24
2 | CCc1cc(Nc2ncc(C(C)=O)c(Nc3ccc4nccnc4c3P(C)(C)=O)n2)c(OC)cc1N1CCC(N2CCN(CCC3CCN(c4cc(F)c(C5CCC(=O)NC5=O)c(F)c4)CC3)CC2)CC1 (stereo not drawn) [Example 703, 3-(4-(4-(2-(4-(1-(4-((5-acetyl-4-((5-(dimethylphosphoryl)quinoxalin-6-yl)amino)pyrimidin-2-yl)amino)-2-ethyl-5-methoxyphenyl)piperidin-4-yl)piperazin-1-yl)ethyl)piperidin-1-yl)-2,6-difluorophenyl)piperidine-2,6-dione] | 6.81 | 87.8 | 20 | 93.35
3 | CCc1cc(Nc2ncc(Br)c(Nc3ccc4c(=O)n(C)ccc4c3P(C)(C)=O)n2)c(OC)cc1N1CCC(N2CCN(CCc3cccc4c3n(C)c(=O)n4C3CCC(=O)NC3=O)CC2)CC1 (stereo not drawn) [Example 705, 3-(4-(2-(4-(1-(4-((5-bromo-4-((5-(dimethylphosphoryl)-2-methyl-1-oxo-1,2-dihydroisoquinolin-6-yl)amino)pyrimidin-2-yl)amino)-2-ethyl-5-methoxyphenyl)piperidin-4-yl)piperazin-1-yl)ethyl)-3-methyl-2-oxo-2,3-dihydro-1H-benzo[d]imidazol-1-yl)piperidine-2,6-dione] | 1.53 | 95.3 | 4.56 | 88.58
4 | CCc1cc(Nc2ncc(Br)c(Nc3ccc4nc(C)ccc4c3P(C)(C)=O)n2)c(OC)cc1N1CCC(N2CCN(C3CC(c4ccc(NC5CCC(=O)NC5=O)cc4)C3)CC2)CC1 (stereo not drawn) [Example 709, 3-((4-(3-(4-(1-(4-((5-bromo-4-((5-(dimethylphosphoryl)-2-methylquinolin-6-yl)amino)pyrimidin-2-yl)amino)-2-ethyl-5-methoxyphenyl)piperidin-4-yl)piperazin-1-yl)cyclobutyl)phenyl)amino)piperidine-2,6-dione] | 19.8 | 87.9 | 21.6 | 84.65
5 | CCc1cc(Nc2ncc(Br)c(Nc3ccc4nc(C)ccc4c3P(C)(C)=O)n2)c(OC)cc1N1CCC(N2CCN(CCc3ccc4c(c3)C3(CC3)C(=O)N4C3CCC(=O)NC3=O)CC2)CC1 (stereo not drawn) [Example 710, 3-(5′-(2-(4-(1-(4-((5-bromo-4-((5-(dimethylphosphoryl)-2-methylquinolin-6-yl)amino)pyrimidin-2-yl)amino)-2-ethyl-5-methoxyphenyl)piperidin-4-yl)piperazin-1-yl)ethyl)-2′-oxospiro[cyclopropane-1,3′-indolin]-1′-yl)piperidine-2,6-dione] | 2.69 | 90.9 | 13.6 | 87.65
6 | CCc1cc(Nc2ncc(Br)c(Nc3ccc4nc(C)ccc4c3P(C)(C)=O)n2)c(OC)cc1N1CCC(N2CCN(CCc3ccc4c(c3)C(C)(C)C(=O)N4C3CCC(=O)NC3=O)CC2)CC1 (stereo not drawn) [Example 711, 3-(5-(2-(4-(1-(4-((5-bromo-4-((5-(dimethylphosphoryl)-2-methylquinolin-6-yl)amino)pyrimidin-2-yl)amino)-2-ethyl-5-methoxyphenyl)piperidin-4-yl)piperazin-1-yl)ethyl)-3,3-dimethyl-2-oxoindolin-1-yl)piperidine-2,6-dione] | 0.505 | 90.8 | 2.88 | 91.94
7 | CCc1cc(Nc2ncc(Br)c(Nc3ccc4ncn(C)c(=O)c4c3P(C)(C)=O)n2)c(OC)cc1N1CCC(N2CCN(C(=O)C3CN(c4ccc5c(c4)CN(C4CCC(=O)NC4=O)C5=O)C3)CC2)CC1 (stereo not drawn) [Example 712, 3-(5-(3-(4-(1-(4-((5-bromo-4-((5-(dimethylphosphoryl)-3-methyl-4-oxo-3,4-dihydroquinazolin-6-yl)amino)pyrimidin-2-yl)amino)-2-ethyl-5-methoxyphenyl)piperidin-4-yl)piperazine-1-carbonyl)azetidin-1-yl)-1-oxoisoindolin-2-yl)piperidine-2,6-dione] | 2.06 | 88.6 | 7.34 | 91.27

The next lines start with results.

Row | DC50 [1] [nM] | Dmax [2] [%] | DC50 [2] [nM] | SMILES | DTC Dmax (%) [1] [%]
8 | 3.04 | 89.2 | 6.06 | CCc1cc(Nc2ncc(Br)c(Nc3ccc4nc(C)ccc4c3P(C)(C)=O)n2)c(OC)cc1N1CCC(N2CCN(C(=O)C34CCC(Nc5cc(F)c(C6CCC(=O)NC6=O)c(F)c5)(CC3)C4)CC2)CC1 (stereo not drawn) [Example 699, 3-(4-((4-(4-(1-(4-((5-bromo-4-((5-(dimethylphosphoryl)-2-methylquinolin-6-yl)amino)pyrimidin-2-yl)amino)-2-ethyl-5-methoxyphenyl)piperidin-4-yl)piperazine-1-carbonyl)bicyclo[2.2.1]heptan-1-yl)amino)-2,6-difluorophenyl)piperidine-2,6-dione] | 85.08
9 | 6.49 | 92.4 | 13.1 | CCc1cc(Nc2ncc(Br)c(Nc3ccc4nc(C)ccc4c3P(C)(C)=O)n2)c(OC)cc1N1CCC(N2CCC(C(=O)N3CCC(c4cc(F)c(C5CCC(=O)NC5=O)c(F)c4)CC3)CC2)CC1 (stereo not drawn) [Example 700, 3-(4-(1-(1′-(4-((5-bromo-4-((5-(dimethylphosphoryl)-2-methylquinolin-6-yl)amino)pyrimidin-2-yl)amino)-2-ethyl-5-methoxyphenyl)-[1,4′-bipiperidine]-4-carbonyl)piperidin-4-yl)-2,6-difluorophenyl)piperidine-2,6-dione] | 83.8
10 | 3.98 | 90.4 | 21.9 | CCc1cc(Nc2ncc(Br)c(Nc3ccc4nc(C)ccc4c3P(C)(C)=O)n2)c(OC)cc1N1CCC(N2CCN(CCCOc3cc(F)c(C4CCC(=O)NC4=O)c(F)c3)CC2)CC1 (stereo not drawn) [Example 704, 3-(4-(3-(4-(1-(4-((5-bromo-4-((5-(dimethylphosphoryl)-2-methylquinolin-6-yl)amino)pyrimidin-2-yl)amino)-2-ethyl-5-methoxyphenyl)piperidin-4-yl)piperazin-1-yl)propoxy)-2,6-difluorophenyl)piperidine-2,6-dione] | 82.31
11 | 2.17 | 90.8 | 5.64 | CCc1cc(Nc2ncc(Br)c(Nc3ccc4nc(C)ccc4c3P(C)(C)=O)n2)c(OC)cc1N1CCC(N2CCN(C(=O)C(C)(C)CNc3cc(F)c(C4CCC(=O)NC4=O)c(F)c3)CC2)CC1 (stereo not drawn) [Example 706, 3-(4-((3-(4-(1-(4-((5-bromo-4-((5-(dimethylphosphoryl)-2-methylquinolin-6-yl)amino)pyrimidin-2-yl)amino)-2-ethyl-5-methoxyphenyl)piperidin-4-yl)piperazin-1-yl)-2,2-dimethyl-3-oxopropyl)amino)-2,6-difluorophenyl)piperidine-2,6-dione] | 88.51
12 | 3.29 | 92.1 | 5.79 | CCc1cc(Nc2ncc(Br)c(Nc3ccc4nc(C)c(C)cc4c3P(C)(C)=O)n2)c(OC)cc1N1CCC(N2CCN(CCc3cc(F)c(C4CCC(=O)NC4=O)c(F)c3)CC2)CC1 (stereo not drawn) [Example 707, 3-(4-(2-(4-(1-(4-((5-bromo-4-((5-(dimethylphosphoryl)-2,3-dimethylquinolin-6-yl)amino)pyrimidin-2-yl)amino)-2-ethyl-5-methoxyphenyl)piperidin-4-yl)piperazin-1-yl)ethyl)-2,6-difluorophenyl)piperidine-2,6-dione] | 82.86
13 | 15.2 | 91.3 | 22.7 | CCc1cc(Nc2ncc(Br)c(Nc3ccc4nc(C)ccc4c3P(C)(C)=O)n2)c(OC)cc1N1CCC(N2CCN(C(=O)C3CN(CCc4cc(F)c(C5CCC(=O)NC5=O)c(F)c4)C3)CC2)CC1 (stereo not drawn) [Example 708, 3-(4-(2-(3-(4-(1-(4-((5-bromo-4-((5-(dimethylphosphoryl)-2-methylquinolin-6-yl)amino)pyrimidin-2-yl)amino)-2-ethyl-5-methoxyphenyl)piperidin-4-yl)piperazine-1-carbonyl)azetidin-1-yl)ethyl)-2,6-difluorophenyl)piperidine-2,6-dione] | 81.62
14 | 7.43 | 90.4 | 50.8 | CCc1cc(Nc2ncc(Br)c(Nc3ccc4nc(C)ccc4c3P(C)(C)=O)n2)c(OC)cc1N1CCC(N2CCCN(CCc3cc(F)c(C4CCC(=O)NC4=O)c(F)c3)CC2)CC1 (stereo not drawn) [Example 713, 3-(4-(2-(4-(1-(4-((5-bromo-4-((5-(dimethylphosphoryl)-2-methylquinolin-6-yl)amino)pyrimidin-2-yl)amino)-2-ethyl-5-methoxyphenyl)piperidin-4-yl)-1,4-diazepan-1-yl)ethyl)-2,6-difluorophenyl)piperidine-2,6-dione] | 86.33
15 | 5.34 | 90.1 | 18.9 | CCc1cc(Nc2ncc(Br)c(Nc3ccc4ncsc4c3P(C)(C)=O)n2)c(OC)cc1N1CCC(N2CCN(CCc3cc(F)c(C4CCC(=O)NC4=O)c(F)c3)CC2)CC1 (stereo not drawn) [Example 714, 3-(4-(2-(4-(1-(4-((5-bromo-4-((7-(dimethylphosphoryl)benzo[d]thiazol-6-yl)amino)pyrimidin-2-yl)amino)-2-ethyl-5-methoxyphenyl)piperidin-4-yl)piperazin-1-yl)ethyl)-2,6-difluorophenyl)piperidine-2,6-dione] | 96.7

From patent publication US20230265116A1, “DEGRADATION OF (EGFR) BY CONJUGATION OF EGFR INHIBITORS WITH E3 LIGASE LIGAND AND METHODS OF USE” (BEIGENE, LTD., priority 2020, published 2023)
